Reference: publication PMC6197257 (Scientific Reports, 2018)

Legend:
serum albumin = assay: binding assay with serum albumin (ultrafiltration of pooled plasma); format: in vitro ADME, rat; conditions: pooled plasma of EHBRs, filtrate undetectable by LC-MS/MS
Procedure: In total 100 µl of pooled plasma samples from female EHBRs described above were ultra-centrifugated using Centricut W-20 (Molecular weight cut off 2 × 10^4, Kurabo Industries Ltd., Osaka, Japan) according to the manufacturer’s instruction, and the concentration of compound 1 in the filtrate was measured by using LC-MS/MS described in uptake study section.

rat kidney slices = assay: uptake by rat kidney slices; format: in vitro ADME; conditions: pooled plasma of female EHBRs, pH 5.5, 2 h
Procedure: Female SD rats (9-week-old) were treated with urethane (1 g/kg, i.p.), and their kidneys were collected. After removal of the capsule, the kidneys were sliced at approximately 0.5-mm thickness in the frontal section of the organ, using a tissue slicer (Natsume Seisakusyo, Tokyo, Japan) and then cut at the renal hilus into two halves. The slices were pre-incubated at either 4 or 37 °C for 15 min in 24-well plates with 0.3 ml of the incubation medium (137 mM NaCl, 5.4 mM KCl, 0.95 mM CaCl2, 0.81 mM MgSO4, 0.44 mM KH2PO4, 0.25 mM Na2HPO4, 5.5 mM glucose, 10 mM MES, adjusted to pH 5.5). Five ml of pooled female EHBR plasma samples was lyophilized, and dissolved in 5 ml of the incubation medium. […] After washing with PBS three times, the kidney slices were homogenated in PBS using sonication, and the concentrations of protein were measured as mentioned above. […]
LC-ESI(+)MS/MS analysis was conducted at the following conditions: column, Scherzo SM-C18 (3 μm, 3 mm i.d. ×100 mm, Imtakt, Kyoto, Japan); mobile phase, (A) 5 mM AcNH4, (B) 125 mM AcNH4/acetonitrole 1:4, at a flow rate of 0.3 ml/min, with the following gradient profile: A:B = 50:50–0:100 (0–3 min) and 0:100 (3–10 min); compound 1 (5.8 min), astragaloside IV (3.0 min), GA (8.7 min); the transitions monitored were the same as described in the previous section. […]

[1] = pharmacokinetics in EHBRs orally treated with GA (200 mg/kg), LC-MS/MS; format: in vivo, Eisai Hyperbilirubinemia rats (EHBRs)
Procedure: Female SD rats or EHBRs (9-week-old) were anesthetized by an intraperitoneal (i.p.) injection of urethane (1 g/kg) and their jugular veins were exposed. […] Aliquots (10 µl) of plasma or urine were mixed with 20 µl of subtilisin (0.91 U/ml), incubated at 37 °C for 30 min, followed by the addition of 70 µl of astragalloside IV solution (1 µg/ml in ethanol containing 0.5% formic acid), and kept at −20 °C for 30 min.

rat 11β-HSD2 = target: T1, rat 11β-HSD2 (Rattus norvegicus, UniProt P50233); assay: in vitro 11β-HSD2 activity using rat kidney microsomes; format: biochemical
T1 construct: kidney microsome fractions were obtained from male Wistar rats (7-week-old); from tissue; host or cells: rat kidney microsome fraction (male Wistar rats)
T1 sequence (P50233 1-400): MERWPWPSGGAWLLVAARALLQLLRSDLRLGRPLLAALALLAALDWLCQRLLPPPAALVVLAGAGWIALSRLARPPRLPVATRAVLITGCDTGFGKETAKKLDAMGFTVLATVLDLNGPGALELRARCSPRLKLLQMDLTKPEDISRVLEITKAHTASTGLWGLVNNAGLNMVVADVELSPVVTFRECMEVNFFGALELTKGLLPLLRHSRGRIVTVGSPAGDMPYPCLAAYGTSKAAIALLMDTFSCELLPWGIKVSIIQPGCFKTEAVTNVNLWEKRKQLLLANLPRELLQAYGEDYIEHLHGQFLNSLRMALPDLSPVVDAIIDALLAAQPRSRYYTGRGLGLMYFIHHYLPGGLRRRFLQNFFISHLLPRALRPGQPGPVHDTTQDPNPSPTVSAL
Procedure: Assays were conducted as described by Diederich et al.[23] with slight modifications as described in our previous study. Briefly, kidney microsome fractions were obtained from male Wistar rats (7-week-old). The microsome fraction (1.0 mg protein) was then incubated at 37 °C for 30 min in a reaction mixture containing 50 nM [1,2,6,7-^3H] cortisol, 1 mM NAD^+, and samples in […] 0.1 M phosphate buffer (pH 6.0). The reaction was terminated by adding 250 µl EtOH containing 1.25 mg cortisol and 1.25 mg cortisone. A 10 µl aliquot of the solution was spotted onto a silica gel 60 F254 plate and was developed with chloroform:MeOH (9:1). Spots corresponding to cortisone (Rf value, 0.43) were detected under UV light, scraped into a scintillation vial containing Clear-sol®, and the radioactivity was measured using a liquid scintillation counter (Hitachi Aloka Medical, Tokyo, Japan). The IC50 was calculated from the least square regression line made from 3 points that crossed 50% of the control logarithmic concentration values.

- albumin-binding ratio in plasma (serum albumin): more than 99.9%
- uptake by kidney slices at 37 °C compared with 4 °C (rat kidney slices): significantly higher
- plasma concentration, times higher than that of 3MGA ([1]; EHBRs orally treated with GA): about 10 times
- concentration at 12 h ([1]; Eisai Hyperbilirubinemia rats (EHBR), rat, plasma, female EHBRs, GA 200 mg/kg oral, 12 h, read-out: plasma concentration 12 h after GA treatment): 5.3 µM
- urinary elimination in EHBRs ([1]; female EHBRs, GA 200 mg/kg oral, over 12 h): eliminated via urine
- potency on 11β-HSD2, times lower than that of 3MGA and GA (rat 11β-HSD2; IC50 of compound 1 compared with 3MGA and GA): about 10 times
- IC50 (rat 11β-HSD2; kidney microsomes of male Wistar rats, 37 °C, 30 min): 2000 nM
SMILES: CC1(C(=O)OC2OC(C(=O)O)C(O)C(O)C2O)CC(O)C2(C)CCC3(C)C(=CC(=O)C4C5(C)CCC(OS(=O)(=O)O)C(C)(C)C5CCC43C)C2C1 (stereo not drawn) [Compound 1, 22α-hydroxy-18β-glycyrrhetyl-3-O-sulfate-30-glucuronide]
